Reference: ChEMBL document CHEMBL1201862, “PubChem BioAssay data set” (2004)
Calls of active or inactive are those of the source.

Assays:
[1] = HEK-293T viability loss after treatment – luminescence, T-cell screen hits, cytotoxicity control for TCR NF-kB inhibitor project, dose response (AID 489026); type: functional, cell-based;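 further: cells exposed to compound about 14 hours before the viability readout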
[2] = viability loss in HEK293T cells – cell-based, cherry-picks, cytotoxicity control for HIV Vif inhibitor project, dose response (AID 652208); type: functional
[3] = target: Luciferin 4-monooxygenase (Photinus pyralis, UniProt P08659); assay: inhibition of purified Photinus pyralis luciferase – biochemical, luminescence, dose response (AID 1891)
[4] = viability of uninfected HEp-2 cells – cell-based, HTS, cytotoxicity control for RSV inhibitor project, dose response (AID 2410); type: functional; details: human respiratory syncytial virus
[5] = Luminescence Cell-Based Dose Confirmation HTS to Identify Inhibitors of Platelet Dense Granule Release. [Related pubchem assays: 1663 (Primary HTS), 1678 (Summary of Project)]; type: functional
[6] = target: Low molecular weight phosphotyrosine protein phosphatase (Homo sapiens, UniProt P24666); type: functional; details: read-out: IC50_Mean;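 further: Dose-response confirmation assay measuring inhibition of LMPTP enzyme activity by fluorescence intensity read-out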
Beta-lactamase [7] = target: T1, Beta-lactamase (Pseudomonas aeruginosa, UniProt Q79MP6); assay: […] counterscreen for selective VIM-2 inhibitors: dose response biochemical high throughput screening assay to identify inhibitors of IMP-1 metallo-beta-lactamase.
Beta Lactamase [8] = target: T2, Beta Lactamase (Pseudomonas aeruginosa, UniProt Q932Y6); assay: VIM-2 CCF2 hydrolysis inhibition, assay artifact filter – biochemical, FRET readout, CCF2 substrate, artefact control for selective VIM-2 inhibitor project, dose response (AID 1926)
Beta Lactamase [9] = target: T2, Beta Lactamase; assay: concentration-dependent VIM-2 enzyme inhibition – biochemical, epi-absorbance readout, selective inhibitors, dose response (AID 1919)
Beta-lactamase [10] = target: T1, Beta-lactamase; assay: inhibition of IMP-1 beta-lactamase activity – biochemical, epi-absorbance, selectivity assay for VIM-2 inhibitor project, dose response (AID 1920)
Beta-lactamase [11] = target: Beta-lactamase (Salmonella choleraesuis (strain SC-B67), UniProt Q5J463); assay: Epi-absorbance-based counterscreen for selective VIM-2 inhibitors: dose response biochemical high throughput screening assay to identify inhibitors of TEM-1 serine-beta-lactamase.
[12] = target: T3, Sentrin-specific protease 1 (Homo sapiens, UniProt Q9P0U3); assay: SENP1 catalytic domain blockers, concentration series – biochemical, kinetic FRET, dose response (AID 651697); type: functional; details: read-out: IC50_Mean
Large T antigen = Large T antigen (Simian virus 40, UniProt P03070); type: functional, Betapolyomavirus macacae;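 further: Confirmatory-stage PubChem screen for compounds that inhibit SV40 T antigen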
[13] = target: T3, Sentrin-specific protease 1; assay: Dose response confirmation of small molecule inhibitors of the catalytic domain of the SUMO protease, SENP1 in a FRET assay.; type: functional; details: read-out: IC50_Mean
Paired box protein Pax-8 = Paired box protein Pax-8 (Homo sapiens, UniProt Q06710); assay: PAX8 transcriptional activity inhibition in RMG-I – RMG-I cells, luciferase, cherry-pick, dose response (AID 687027); type: functional, cell-based;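 further: luciferase reporter driven by Pax8 target thyroperoxidase promoter measured by SteadyGlo luminescence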
[14] = target: Heat shock protein HSP 90-alpha (Homo sapiens, UniProt P07900); type: functional, organism-based
Protein S100-A4 = Protein S100-A4 (Homo sapiens, UniProt P26447); assay: human S100A4 peptide interaction inhibition curves – biochemical, fluorescence polarization, cherry-picked hits, dose response (AID 687001); type: functional
Caspase-3 = target: T4, Caspase-3 (Homo sapiens, UniProt P42574); assay: Dose-response confirmation of uHTS inhibitor hits of Sentrin-Specific Protease 8 in a Caspase-3 Fluorescence assay.; type: functional
T4 sequence (P42574 whole entry): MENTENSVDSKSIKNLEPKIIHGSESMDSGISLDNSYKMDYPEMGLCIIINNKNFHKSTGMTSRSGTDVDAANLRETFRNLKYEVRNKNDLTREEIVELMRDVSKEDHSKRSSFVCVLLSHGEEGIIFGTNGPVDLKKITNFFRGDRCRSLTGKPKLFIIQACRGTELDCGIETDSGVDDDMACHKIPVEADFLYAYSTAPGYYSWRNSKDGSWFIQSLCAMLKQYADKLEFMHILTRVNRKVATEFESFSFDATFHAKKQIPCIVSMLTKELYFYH

[15] = target: T5, Sentrin-specific protease 8 (Homo sapiens, UniProt Q96LD8); type: functional
T5 sequence (Q96LD8 whole entry): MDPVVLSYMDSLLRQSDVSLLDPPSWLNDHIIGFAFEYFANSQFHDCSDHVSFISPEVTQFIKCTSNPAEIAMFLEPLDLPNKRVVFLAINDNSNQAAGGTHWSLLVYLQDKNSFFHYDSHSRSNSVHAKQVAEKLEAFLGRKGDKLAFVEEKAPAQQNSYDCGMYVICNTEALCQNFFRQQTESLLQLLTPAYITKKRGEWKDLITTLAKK

[16] = target: T5, Sentrin-specific protease 8; type: functional; remark: listed apart in the source

T2 sequence (Q932Y6 whole entry): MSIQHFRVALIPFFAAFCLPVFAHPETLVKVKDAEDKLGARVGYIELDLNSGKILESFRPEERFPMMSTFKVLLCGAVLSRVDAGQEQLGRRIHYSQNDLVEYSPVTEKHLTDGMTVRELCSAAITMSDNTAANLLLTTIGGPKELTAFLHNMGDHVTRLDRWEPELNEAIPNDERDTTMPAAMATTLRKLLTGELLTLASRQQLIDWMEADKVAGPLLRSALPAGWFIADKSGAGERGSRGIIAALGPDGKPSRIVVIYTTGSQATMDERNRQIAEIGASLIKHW
T3 sequence (Q9P0U3 whole entry, the tested form may be a part): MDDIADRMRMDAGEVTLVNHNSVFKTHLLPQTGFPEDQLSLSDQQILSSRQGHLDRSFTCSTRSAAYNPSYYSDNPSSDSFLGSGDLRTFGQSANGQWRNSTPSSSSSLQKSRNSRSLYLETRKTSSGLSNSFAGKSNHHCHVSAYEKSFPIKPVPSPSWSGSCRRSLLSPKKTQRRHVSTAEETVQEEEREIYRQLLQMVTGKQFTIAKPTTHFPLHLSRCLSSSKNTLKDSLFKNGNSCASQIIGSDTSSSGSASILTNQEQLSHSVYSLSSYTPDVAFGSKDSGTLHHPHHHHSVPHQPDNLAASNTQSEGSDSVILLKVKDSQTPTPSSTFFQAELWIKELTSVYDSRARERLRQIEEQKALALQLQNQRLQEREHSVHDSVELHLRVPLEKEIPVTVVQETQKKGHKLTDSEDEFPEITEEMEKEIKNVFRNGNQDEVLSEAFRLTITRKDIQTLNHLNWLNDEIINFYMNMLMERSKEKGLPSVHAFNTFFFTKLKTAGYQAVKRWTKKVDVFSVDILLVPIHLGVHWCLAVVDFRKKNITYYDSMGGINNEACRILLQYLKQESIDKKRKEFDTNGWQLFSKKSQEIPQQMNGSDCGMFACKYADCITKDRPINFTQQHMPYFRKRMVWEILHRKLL
T1 sequence (Q79MP6 whole entry): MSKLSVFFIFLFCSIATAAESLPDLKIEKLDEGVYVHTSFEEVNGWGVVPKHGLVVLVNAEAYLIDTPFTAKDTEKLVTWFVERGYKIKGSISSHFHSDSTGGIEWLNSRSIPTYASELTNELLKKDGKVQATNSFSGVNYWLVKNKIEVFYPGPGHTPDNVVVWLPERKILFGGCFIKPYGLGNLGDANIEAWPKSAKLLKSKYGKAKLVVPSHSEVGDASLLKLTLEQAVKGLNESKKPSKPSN
Sequence of Low molecular weight phosphotyrosine protein phosphatase (P24666 whole entry): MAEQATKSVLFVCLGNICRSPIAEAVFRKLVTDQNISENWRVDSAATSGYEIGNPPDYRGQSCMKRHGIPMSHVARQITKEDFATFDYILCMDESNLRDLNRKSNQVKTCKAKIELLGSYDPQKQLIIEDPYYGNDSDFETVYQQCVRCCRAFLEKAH
Sequence of Large T antigen (P03070 whole entry, the tested form may be a part): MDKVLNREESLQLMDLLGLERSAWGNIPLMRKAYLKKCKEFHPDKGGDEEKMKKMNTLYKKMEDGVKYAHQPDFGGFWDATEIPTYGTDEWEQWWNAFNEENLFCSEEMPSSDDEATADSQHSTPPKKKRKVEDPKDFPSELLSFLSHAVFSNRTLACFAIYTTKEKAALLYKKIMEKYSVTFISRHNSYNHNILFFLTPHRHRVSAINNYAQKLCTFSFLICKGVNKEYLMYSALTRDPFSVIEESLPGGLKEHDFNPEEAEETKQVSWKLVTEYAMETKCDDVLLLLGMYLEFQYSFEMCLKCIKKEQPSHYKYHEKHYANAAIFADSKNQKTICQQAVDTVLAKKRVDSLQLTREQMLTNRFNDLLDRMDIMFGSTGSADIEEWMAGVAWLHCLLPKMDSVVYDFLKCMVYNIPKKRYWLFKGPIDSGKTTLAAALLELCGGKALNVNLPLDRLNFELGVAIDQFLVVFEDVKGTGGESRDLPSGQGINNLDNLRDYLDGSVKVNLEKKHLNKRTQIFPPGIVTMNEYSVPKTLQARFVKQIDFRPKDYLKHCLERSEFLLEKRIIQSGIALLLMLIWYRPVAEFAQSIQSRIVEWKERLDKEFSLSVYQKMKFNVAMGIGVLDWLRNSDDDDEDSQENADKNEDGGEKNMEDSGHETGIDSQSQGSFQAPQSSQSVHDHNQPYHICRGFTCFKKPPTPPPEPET
Sequence of Luciferin 4-monooxygenase (P08659 whole entry): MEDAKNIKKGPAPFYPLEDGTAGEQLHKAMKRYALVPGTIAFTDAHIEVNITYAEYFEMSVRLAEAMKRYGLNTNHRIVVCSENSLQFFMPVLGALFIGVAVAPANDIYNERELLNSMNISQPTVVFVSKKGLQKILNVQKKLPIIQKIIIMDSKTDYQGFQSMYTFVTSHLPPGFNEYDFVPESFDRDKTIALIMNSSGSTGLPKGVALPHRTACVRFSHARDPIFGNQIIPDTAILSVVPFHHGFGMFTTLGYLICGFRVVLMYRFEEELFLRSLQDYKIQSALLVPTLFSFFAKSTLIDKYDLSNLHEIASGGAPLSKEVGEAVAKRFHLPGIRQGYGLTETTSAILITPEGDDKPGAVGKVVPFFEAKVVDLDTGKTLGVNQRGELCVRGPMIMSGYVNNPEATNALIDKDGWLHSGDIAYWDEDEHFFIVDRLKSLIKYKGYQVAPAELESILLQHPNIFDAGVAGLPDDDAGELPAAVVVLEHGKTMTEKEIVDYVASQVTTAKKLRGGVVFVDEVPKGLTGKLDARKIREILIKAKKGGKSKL
Sequence of Protein S100-A4 (P26447 whole entry): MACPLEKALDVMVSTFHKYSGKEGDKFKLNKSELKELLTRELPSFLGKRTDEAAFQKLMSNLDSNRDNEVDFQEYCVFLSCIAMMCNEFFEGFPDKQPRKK
Sequence of Beta-lactamase (Salmonella choleraesuis (strain SC-B67), UniProt Q5J463) (Q5J463 whole entry, the tested form may be a part): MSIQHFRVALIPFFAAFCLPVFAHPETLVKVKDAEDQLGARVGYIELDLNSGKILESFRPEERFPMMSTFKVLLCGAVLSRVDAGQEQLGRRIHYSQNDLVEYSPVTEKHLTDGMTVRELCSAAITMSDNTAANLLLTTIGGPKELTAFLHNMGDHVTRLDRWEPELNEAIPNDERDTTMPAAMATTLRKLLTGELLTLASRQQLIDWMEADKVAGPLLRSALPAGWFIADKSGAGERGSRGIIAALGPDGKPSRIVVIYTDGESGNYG
Sequence of Paired box protein Pax-8 (Q06710 whole entry): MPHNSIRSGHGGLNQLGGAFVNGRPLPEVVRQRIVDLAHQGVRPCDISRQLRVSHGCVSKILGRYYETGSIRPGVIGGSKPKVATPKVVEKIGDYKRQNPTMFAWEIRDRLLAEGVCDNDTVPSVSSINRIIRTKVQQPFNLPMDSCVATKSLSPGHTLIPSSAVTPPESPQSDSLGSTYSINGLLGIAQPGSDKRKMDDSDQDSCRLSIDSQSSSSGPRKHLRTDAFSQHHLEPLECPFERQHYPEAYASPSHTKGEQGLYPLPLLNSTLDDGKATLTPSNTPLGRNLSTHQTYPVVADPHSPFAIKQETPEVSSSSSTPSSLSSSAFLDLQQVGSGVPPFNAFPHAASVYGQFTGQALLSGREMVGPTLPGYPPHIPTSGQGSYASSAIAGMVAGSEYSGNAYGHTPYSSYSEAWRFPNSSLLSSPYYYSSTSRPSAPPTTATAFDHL

CCCOCCOC(=O)c1[nH]c2c(c1C)C(=O)CC(c1cc(OC)ccc1OC)C2 (stereo not given)
IC50 [1]: > 80 µM (inactive)
AC50 [2]: > 52 µM (inactive)

Cc1cccc2nc(-c3ccccc3)nc(N[C@@H](CO)c3ccccc3)c12
EC50 [3]: > 112 µM (not active)
CC50 [4]: 19 µM (active)
EC50 [5]: > 112 µM (not active)
IC50 [6]: 17 µM (active)

O=[N+]([O-])c1ccccc1/C=N/n1c(S)nnc1C(F)(F)F
IC50 (Beta-lactamase [7]): > 59.6 µM (inactive)
IC50 (Beta Lactamase [8]): 3.12 µM (active)
IC50 (Beta Lactamase [9]): 9.33 µM (active)
IC50 (Beta-lactamase [10]): > 59.6 µM (inactive)
IC50 (Beta-lactamase [11]): > 59.6 µM (inactive)

COc1cc(SC#N)ccc1/N=C/c1c(C)[nH]n(-c2ccc(C)cc2C)c1=O
IC50 [12]: 24.8 µM (inactive)
IC50 (Large T antigen): 7.19 µM (active)
IC50 [13]: 15 µM (active)

COc1cccc2c1C(=O)c1c(O)c3c(c(O)c1C2=O)CC(O)(C(=O)CO)CC3OC1CC(N(C)C)C(O)C(C)O1 (stereo not given)
AC50 (Paired box protein Pax-8): 0.833 µM (active)
AC50 [14]: 0.296 µM (active)
AC50 (Protein S100-A4): 0.257 µM (active)

COc1cccc(-c2cc(C(=O)N3CCc4ccccc4C3)no2)c1
IC50 (Caspase-3): 32 µM (active)
IC50 [15]: 7.7 µM (active)
IC50 [16]: 46 µM (active)
